Legend:
[1] = test system: Granta-519 lymphoma tumor spheroids or A549 tumor spheroids; assay: Chronic stimulation with rescue treatment during re-challenge with tumor spheroids; assay type: cell-based
Description: Anti-CD19 CAR-expressing T cells, produced as described in Example 1, were chronically stimulated as described in Example 3, but in the absence of Compound C during stimulation. Instead, chronically stimulated CAR T cells were treated with Compound C during re-challenge with Granta-519 lymphoma tumor spheroids or A549 tumor spheroids, after which cytolytic activity, cytokine production, and gene expression of the CAR T Cells was assessed.
FIGS. 4B and 4C show the volume of tumor spheroids co-cultured with anti-CD19 CAR T cells in the presence of Compound C.

Ikaros [2] = biological target: T1, Ikaros (Homo sapiens, UniProt Q13422+Q96SW2); assay: Ikaros degradation in stimulated anti-CD19 CAR T cells (flow cytometry MFI); assay type: cell-based
T1 construct: analyzed by flow cytometry to assess intracellular levels of Ikaros and Aiolos in CAR+ T cells; endogenous in cells; host or cells: primary human CD4+ and CD8+ T cells from healthy donors, lentivirally transduced with an anti-CD19 CAR
T1 sequence (Q13422 whole entry): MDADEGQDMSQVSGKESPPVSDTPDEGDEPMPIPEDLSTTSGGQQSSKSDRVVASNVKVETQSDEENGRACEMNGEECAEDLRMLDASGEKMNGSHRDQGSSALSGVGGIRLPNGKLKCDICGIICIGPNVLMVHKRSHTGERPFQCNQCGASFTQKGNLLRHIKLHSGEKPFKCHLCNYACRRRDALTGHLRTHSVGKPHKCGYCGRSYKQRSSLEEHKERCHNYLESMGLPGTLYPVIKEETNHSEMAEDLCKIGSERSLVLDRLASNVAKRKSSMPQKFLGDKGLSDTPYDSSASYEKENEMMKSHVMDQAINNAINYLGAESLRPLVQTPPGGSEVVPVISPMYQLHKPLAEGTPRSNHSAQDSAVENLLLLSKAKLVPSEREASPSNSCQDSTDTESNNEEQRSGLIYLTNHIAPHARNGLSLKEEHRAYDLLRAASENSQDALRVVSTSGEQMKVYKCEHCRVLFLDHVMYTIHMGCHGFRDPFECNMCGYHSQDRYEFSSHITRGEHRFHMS
T1 sequence (Q96SW2 whole entry): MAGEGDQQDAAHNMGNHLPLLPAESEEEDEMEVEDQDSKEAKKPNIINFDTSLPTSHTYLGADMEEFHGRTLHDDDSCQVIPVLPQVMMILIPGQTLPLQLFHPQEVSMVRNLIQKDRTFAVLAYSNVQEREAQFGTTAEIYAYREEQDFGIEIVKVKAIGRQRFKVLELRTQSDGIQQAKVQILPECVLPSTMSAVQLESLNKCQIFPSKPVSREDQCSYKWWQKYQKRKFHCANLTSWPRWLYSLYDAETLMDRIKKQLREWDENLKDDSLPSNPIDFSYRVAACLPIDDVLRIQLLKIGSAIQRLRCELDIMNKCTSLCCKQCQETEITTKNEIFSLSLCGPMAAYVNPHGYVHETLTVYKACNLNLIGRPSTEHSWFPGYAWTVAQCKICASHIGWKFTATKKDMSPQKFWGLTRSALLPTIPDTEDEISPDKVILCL
T1 sequence (Q16531 whole entry partner): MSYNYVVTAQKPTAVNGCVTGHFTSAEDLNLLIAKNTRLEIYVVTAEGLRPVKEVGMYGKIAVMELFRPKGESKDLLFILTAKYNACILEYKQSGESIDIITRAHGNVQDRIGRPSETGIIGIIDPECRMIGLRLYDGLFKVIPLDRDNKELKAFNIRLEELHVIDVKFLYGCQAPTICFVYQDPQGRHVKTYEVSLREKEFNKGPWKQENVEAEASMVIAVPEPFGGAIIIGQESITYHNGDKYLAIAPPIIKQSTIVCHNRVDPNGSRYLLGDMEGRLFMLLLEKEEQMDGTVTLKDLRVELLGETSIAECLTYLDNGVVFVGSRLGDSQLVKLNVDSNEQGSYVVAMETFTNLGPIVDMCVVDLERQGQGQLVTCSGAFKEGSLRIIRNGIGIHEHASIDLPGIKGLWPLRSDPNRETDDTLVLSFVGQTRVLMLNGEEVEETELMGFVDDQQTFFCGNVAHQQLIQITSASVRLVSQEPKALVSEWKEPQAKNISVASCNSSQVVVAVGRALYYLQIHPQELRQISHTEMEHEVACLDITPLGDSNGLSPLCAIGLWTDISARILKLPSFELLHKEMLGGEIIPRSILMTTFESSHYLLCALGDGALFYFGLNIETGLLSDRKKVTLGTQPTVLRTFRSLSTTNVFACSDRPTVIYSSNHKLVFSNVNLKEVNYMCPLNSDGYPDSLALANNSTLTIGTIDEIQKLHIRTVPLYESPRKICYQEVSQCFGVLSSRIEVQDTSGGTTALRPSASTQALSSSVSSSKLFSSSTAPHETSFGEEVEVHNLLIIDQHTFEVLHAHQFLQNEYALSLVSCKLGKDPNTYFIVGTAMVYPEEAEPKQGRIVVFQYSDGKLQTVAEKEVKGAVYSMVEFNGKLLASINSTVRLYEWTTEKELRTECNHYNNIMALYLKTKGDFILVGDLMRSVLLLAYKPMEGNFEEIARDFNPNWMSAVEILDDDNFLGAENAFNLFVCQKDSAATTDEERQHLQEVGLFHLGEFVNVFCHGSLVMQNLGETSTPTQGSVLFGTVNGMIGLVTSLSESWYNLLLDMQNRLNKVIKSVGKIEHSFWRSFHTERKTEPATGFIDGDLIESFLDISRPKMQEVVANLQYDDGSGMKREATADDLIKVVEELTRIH
Source text: T cell compositions containing anti-CD19 CAR-expressing T cells were generated from leukapheresis samples from five healthy human adult donors by a process that included immunoaffinity-based selection of T cells by separately selecting CD4+ and CD8+ cells from the samples, resulting in two compositions enriched for CD4+ and CD8+ cells, respectively, per donor. Cells of the enriched CD4+ and CD8+ compositions were separately activated with anti-CD3/anti-CD28 beads and subjected to lentiviral transduction with a vector encoding an anti-CD19 CAR. The anti-CD19 CAR contained an anti-CD19 single-chain variable fragment (scFv) derived from a murine antibody (variable region derived from FMC63), an immunoglobulin-derived spacer, a transmembrane domain derived from CD28, a costimulatory region derived from 4-1BB, and a CD3-zeta intracellular signaling domain. The expression construct in the viral vector further contained sequences encoding a surrogate surface marker for CAR expression, which was separated from the CAR-encoding sequence by a T2A ribosome skip sequence. Transduced populations then were separately incubated in the presence of stimulating reagents for cell expansion. Expanded CD4+ and CD8+ cells were formulated and cryopreserved separately and stored.
Prior to use, the cryopreserved CD4+ and CD8+ engineered cell compositions were thawed and combined at approximately a 1:1 CD4:CD8 ratio for each donor. Cells of the combined composition were then stimulated at 37° C. with 5% CO2 for 24 hours with 30 µg/mL of a CAR-specific anti-idiotypic antibody (see, e.g., WO2018/023100).
Following incubation, the stimulated cells were stained with antibodies and analyzed by flow cytometry to assess intracellular levels of Ikaros and Aiolos in CAR+ T cells, as measured by median fluorescence intensity (MFI). MFI values for Ikaros and Aiolos were normalized and calculated as a percentage relative to vehicle control.

anti-CD19 CAR T cells = assay: Intracellular cytokine levels in stimulated anti-CD19 CAR T cells; assay type: cell-based, human; conditions: 72 hours, 30 μg/mL anti-idiotypic antibody
Description: Anti-CD19 CAR-expressing T cell compositions were generated from three different healthy donors as described in Example 1. Prior to use, cryopreserved CD4+ and CD8+ engineered cell compositions were thawed and combined at approximately a 1:1 CD4:CD8 ratio.
Following incubation, stimulated CAR T cells were harvested, washed twice in media, and assessed.
Intracellular cytokine levels in CAR T cells that had been stimulated for 72 hours with 30 μg/mL of anti-idiotypic antibody were determined. To do so, supernatants were collected from the stimulated CAR T cells and were analyzed for interferon-γ (IFN-γ) and interleukin-2 (IL-2) content using a multiplex electrochemiluminescence assay. To stain for intracellular cytokines, including Perforin and Granzyme B, cells were fixed and permeabilized using a Foxp3/Transcription Factor Staining Buffer Set (Thermo Fisher Scientific). Intracellular cytokine levels of IFNγ, perforin, granzyme B, and IL-2 were then determined by flow cytometry. […] Log2 fold-change values greater than zero are indicated with a “+” in FIG. 2F. Similar results were observed when measuring the percentage of cells positive for the cytokines.

Ikaros [3] = biological target: T1, Ikaros; assay: Ikaros levels in anti-CD19 CAR T cells after 24-hour or six-day exposure; assay type: cell-based
Description: Due to the robust impact of Compound C on degradation of Ikaros and Aiolos, in which excessive or sustained treatment may impact CAR T cell function negatively and/or cause neutropenia secondary to neutrophil maturation arrest, an intermittent dosing schedule for treatment with Compound C was evaluated for its ability to effect deep, but transient degradation of Ikaros. To do so, the pharmacokinetics of a weekly (Q7D) 0.3-mg dose of Compound C were modelled. […] The effects of a weekly 0.3-mg dose of Compound C on neutrophil development were also modelled.
FIGS. 6B and 6C show Ikaros levels in anti-CD19 CAR T cells, generated as described in Example 1, following 24-hour (FIG. 6B) or six-day exposure (FIG. 6C) to Compound C.

[4] = test system: Raji lymphoma tumor spheroids; assay: Simulated intermittent dosing during chronic stimulation, re-challenge with tumor spheroids; assay type: cell-based; conditions: for cytolytic activity of chronically stimulated CAR T cells over four-day re-challenge: P<0.0001
Description: The effects of an intermittent Compound C dosing schedule on CAR T cells was assessed.
Anti-CD19 CAR-expressing T cells, produced as described in Example 1, were chronically stimulated as described in Example 3 in the presence of Compound C. During chronic stimulation, Compound C was present at (i) 50 nM for one day and 1 nM for the remaining five days, (ii) 25 nM for one day and 0.5 nM for the remaining five days, (iii) 10 nM for one day and absent for the remaining five days, or (iv) 1 nM for all six days. Stimulated CAR T cells were then re-challenged with Raji lymphoma tumor spheroids in the absence of Compound C, after which cytolytic activity was assessed.
Similar results are shown in FIG. 7B for a separate experiment in which CAR T cells were chronically stimulated for 7 days in the presence or absence of Compound C. In this experiment, Compound C was present at (i) 50 nM for one day and 1 nM for the remaining six days of stimulation, (ii) 25 nM for one day and 0.5 nM for the remaining six days of stimulation, (iii) 10 nM for all seven days of stimulation, or (iv) 1 nM for all seven days of stimulation. Stimulated CAR T cells were then re-challenged with Raji lymphoma tumor spheroids in the absence of Compound C, after which cytolytic activity was assessed over a four-day period. […] The CAR T cells stimulated for seven days in the presence or absence of Compound C were also analyzed for phenotypic T cell memory markers using flow cytometry following chronic stimulation. […] CD27/CCR7 expression, which is a marker for less differentiated, naïve-like T cells, was highest in CAR-expressing CD8 T cells stimulated in the presence of Compound C at 50 nM for one day and 1 nM for the remaining six days of stimulation (* P<0.05).

O=C1CC[C@H](N2C(=O)c3cccc(NCc4ccc(CN5CC(N6CCOCC6)C5)cc4F)c3C2=O)C(=O)N1 [Compound C, (S)-2-(2,6-dioxopiperidin-3-yl)-4-((2-fluoro-4-((3-morpholinoazetidin-1-yl)methyl)benzyl)amino)isoindoline-1,3-dione]
tumor volume vs chronically stimulated CAR T cells alone or compound alone ([1]; 1 nM during re-challenge (rescue) with CAR T cells, P<0.0001): more reduced | IFNγ cytokine production five days after re-challenge ([1]; 1 nM during re-challenge (rescue), P<0.0001): highest | tumor volume vs chronically stimulated CAR T cells alone or compound alone ([1]; 10 nM during re-challenge (rescue) with CAR T cells, P<0.0001): more reduced | IFNγ cytokine production five days after re-challenge ([1]; 10 nM during re-challenge (rescue), P<0.05): increased | DC50 (Ikaros [2]; anti-CD19 CAR T cells, 24 hours stimulation with anti-idiotypic antibody, concentration reducing MFI to 50%, average of five donors, read-out: Average EC50 Values (95% Confidence Interval), Ikaros): 310 pM | intracellular Ikaros expression (MFI relative to vehicle control) (Ikaros [2]; approximately 10^-1 to 10^4 nM, 24 hours): Concentration-dependent decreases | Ikaros expression compared with Compound 2 or Compound 1 (Ikaros [2]; at all compound concentration levels tested): lower | intracellular expression of effector cytokines (IFNγ, perforin, granzyme B), fold change in MFI vs vehicle (anti-CD19 CAR T cells): increased production of certain cytokines | Ikaros levels in anti-CD19 CAR T cells (Ikaros [3]; 24-hour exposure, dose levels as low as 0.01 μM): lead to Ikaros degradation | Ikaros levels in anti-CD19 CAR T cells (Ikaros [3]; six-day exposure to 0.001 μM): did not affect Ikaros levels | cytolytic activity of chronically stimulated CAR T cells (tumor cell number during re-challenge) ([4]; 25 nM for one day and 0.5 nM for the remaining five days of stimulation): most increase in cytolytic activity | cytolytic activity of chronically stimulated CAR T cells over four-day re-challenge ([4]; 25 nM for one day and 0.5 nM for the remaining six days of stimulation): improved cytolytic activity | cytolytic activity of chronically stimulated CAR T cells (tumor cell number during re-challenge) ([4]; 50 nM for one day and 1 nM for the remaining five days of stimulation): most increase in cytolytic activity | cytolytic activity of chronically stimulated CAR T cells over four-day re-challenge ([4]; 50 nM for one day and 1 nM for the remaining six days of stimulation): improved cytolytic activity
